Assays:
Parameters in all cases: species or system female BALB/c mice
[1] = test system: subcutaneous murine colorectal cancer model CT26.WT; experiment: In vivo efficacy study, subcutaneous murine colorectal cancer model CT26.WT (Example 4); conditions: Day 16
Method: (§1) The objective of this study was to evaluate preclinically the in vivo therapeutic efficacy of HotSpot Therapeutics's Test Articles in the treatment of the subcutaneous murine Colorectal model CT26.WT in female BALB/c mice. Compound 29 test particles were delivered via PO. Compound 29 was assessed at various dose levels in combination with Oxaliplatin or Cabozantinib. Tumor volumes and body weight were measured three times per week after the initiation of treatment.
The CT26.WT tumor cells were maintained in vitro with RPMI-1640 medium supplemented with 10% fetal bovine serum at 37° C. in an atmosphere of 5% CO2 in air. The cells in exponential growth phase were harvested and quantitated by cell counter before tumor inoculation.
Each mouse was inoculated subcutaneously it the right lower flank region with 5×10^5 tumor cells in 0.1 ml of PBS mixed with Matrigel (1:1) for tumor development.
The randomization started when the mean tumor size reached approximately 86.42 mm^3. 60 mice were enrolled in the study. All animals were randomly allocated to 6 study groups, 10 mice in each group. Randomization was performed based on “Matched distribution” method (StudyDirector™ software, version 3.1.399.19)
The date of randomization was denoted as day 0.
The treatment was initiated on the same day of randomization (day 0) per study design.
(§2) After tumor cells inoculation, the animals were checked daily for morbidity and mortality. During routine monitoring, the animals were checked for any effects of tumor growth and treatments on behavior such as mobility, food and water consumption, body weight gain/loss (Body weights were measured twice per week after randomization), eye/hair matting and any other abnormalities. Mortality and observed clinical signs were recorded for individual animals in detail.
Tumor volumes were measured twice per week after randomization in two dimensions using a caliper, and the volume was expressed in mm^3 using the formula: “V=(L×W×W)/2, where V was tumor volume, L was tumor length (the longest tumor dimension) and W was tumor width (the longest tumor dimension perpendicular to L). Dosing as well as tumor and body weight measurements were conducted in a Laminar Flow Cabinet.
The body weights and tumor volumes were measured by using StudyDirector™ software (version 3.1.399.19).
For Group 01 and Group 03 were terminated when the mean tumor volume of the vehicle control group reaches 2000 mm^3 on day 16.
For Group 02, Group 04, Group 05 and Group 06 were performed for 3 weeks. The study was terminated on day 21 (Sep. 21, 2022).
To compare tumor volumes of different groups at a pre-specified day, we first used Bartlett's test to check the assumption of homogeneity of variance across all groups. When the p-value of Bartlett's test was >=0.05, we ran one-way ANOVA to test overall equality of means across all groups. If the p-value of the one-way ANOVA was <0.05, we further performed post hoc testing by running Tukey's HSD (honest significant difference) tests for all pairwise comparisons, and Dunnett's tests for comparing each treatment group with the vehicle group. When the p-value of Bartlett's test was <0.05, we ran Kruskal-Wallis test to test overall equality of medians among all groups. If the p-value the Kruskal-Wallis test was <0.05, we further performed post hoc testing by running Conover's non-parametric test for all pairwise comparisons or for comparing each treatment group with the vehicle group, both with single-step p-value adjustment.
In addition, we performed pairwise comparisons without multiple comparison correction and report nominal/uncorrected p-values directly from Welch's t-test or Mann-Whitney U test at each time point. Specifically, we first used Shapiro Wilk test to check the assumption of normal distribution for each group. When p-values of Shapiro Wilk tests of both groups in a pair are >0.05, we ran Welch's t-test, otherwise we ran Mann-Whitney U test, to obtain nominal p-values. […]

[2] = test system: subcutaneous murine colorectal cancer model CT26.WT; experiment: In vivo efficacy study, CT26.WT model, combination with Doxorubicin, Gemcitabine or Paclitaxel (Example 5)
Method: as §1, with “of” for “of HotSpot Therapeutics's”, “Doxorubicin, Gemcitabine” for “Oxaliplatin”, “Paclitaxel.” for “Cabozantinib.”
The CT26.WT tumor cells will be maintained in vitro with RPMI-1640 medium supplemented with 10% fetal bovine serum at 37° C. in an atmosphere of 5% CO2 in air. The cells in exponential growth phase will be harvested and quantitated by cell counter before tumor inoculation.
Each ach mouse will be inoculated subcutaneously in the right lower flank region with CT26 tumor cells (5×10^5) in 0.1 ml of PBS for tumor development.
The randomization will start when the mean tumor size reaches approximately 80-100 mm^3. […] Randomization will be performed based on “Matched distribution” method/“Stratified” method (Study Director™ software, version 3.1.399.19)/randomized block design. The date of randomization will be denoted as day 0. […]
as §2, with “will be” for “were”
Tumor volumes will be measured twice per week after randomization in two dimensions using a caliper, and the volume will be expressed in mm^3 using the formula: “V=(L×W×W)/2, where V is tumor volume, L is tumor length (the longest tumor dimension) and W is tumor width (the longest tumor dimension perpendicular to L). […]
(§3) The body weights and tumor volumes will be measured by using StudyDirector™ software (version 3.1.399.19). […]

[3] = test system: subcutaneous murine colorectal cancer model CT26.WT; experiment: In vivo efficacy study, CT26.WT model, combination with ALT-803 (Example 6); conditions: Compound 29 30 mg/kg p.o. BID in combination with ALT-803 0.2 mg/kg i.p. QW; FIG. 5A, 5B
Method: as §1, with “of” for “of HotSpot Therapeutics's”, “ALT-803.” for “Oxaliplatin or Cabozantinib.”
The CT26.WT tumor cells will be maintained in vitro with RPMI-1640 medium supplemented with 10% fetal bovine serum at 37° C. in an atmosphere of 5% CO2 in air. The cells in exponential growth phase will be harvested and quantitated by cell counter before tumor inoculation. […]
as §2, with “will be” for “were”, “detail. […]” for “detail.”
as §3

[4] = Compound 29 60 mg/kg p.o. BID in combination with Cabozantinib 10 mg/kg p.o. QD (Group 6)
[5] = Compound 29 60 mg/kg p.o. BID in combination with Oxaliplatin 5 mg/kg i.p. Q4D (Group 5)
[6] = single agent, Compound 29 60 mg/kg p.o. BID, Oxaliplatin 5 mg/kg i.p. Q4D, Cabozantinib 10 mg/kg p.o. QD

Row | Structure (SMILES) | T/C (%) [1, 4] [%] | TGI (%) [1, 4] [%] | Tumor Volume (mean ± SEM) [1, 4] [mm^3] | T/C (%) [1, 5] [%] | TGI (%) [1, 5] [%] | Tumor Volume (mean ± SEM) [1, 5] [mm^3] | T/C (%) [1, 6] [%] | TGI (%) [1, 6] [%] | Tumor Volume (mean ± SEM) [1, 6] [mm^3] | effect on tumor inhibition as compared to each of the agents as monotherapies ([2]; Compound 29 60 mg/kg p.o. BID in combination with Doxorubicin 4 mg/kg i.v. Q4D, FIG. 2A, 2B) | effect on tumor inhibition as compared to each of the agents as monotherapies ([2]; Compound 29 60 mg/kg p.o. BID in combination with Gemcitabine 5 mg/kg i.p. Q3D, FIG. 3A, 3B) | effect on tumor inhibition as compared to each of the agents as monotherapies ([2]; Compound 29 60 mg/kg p.o. BID in combination with Paclitaxel 20 mg/kg i.p. QW, FIG. 4A, 4B) | effect on tumor inhibition as compared to each of the agents as monotherapies [3]
1 | C[C@H]1CCCN(Cc2cc(C(F)(F)F)c3cn(-c4cccc(C5(Cc6nncn6C)COC5)c4)c(=O)n3c2)C1 [Compound 29] | 25.45 | 74.55 | 643.08 ± 59.79 | 35.94 | 64.06 | 908.21 ± 76.22 | 56.42 | 43.58 | 1425.65 ± 232.85 | improved effect on tumor inhibition | improved effect on tumor inhibition | improved effect on tumor inhibition | improved effect on tumor inhibition
2 | O=C1[O][Pt]2([NH][C@@H]3CCCC[C@H]3[NH]2)[O]C1=O [Oxaliplatin, reference compound] | – | – | – | – | – | – | 103.27 | −3.27 | 2609.42 ± 203.84 | – | – | – | –
3 | COc1cc2nccc(Oc3ccc(NC(=O)C4(C(=O)Nc5ccc(F)cc5)CC4)cc3)c2cc1OC [Cabozantinib, reference compound] | – | – | – | – | – | – | 30.55 | 69.45 | 772.01 ± 100.44 | – | – | – | –

Reference: patent US20250152569A1, “TREATMENT OF CELL PROLIFERATION-ASSOCIATED CONDITIONS USING A COMBINATION OF A CLB-B INHIBITOR AND AN ADDITIONAL THERAPEUTIC AGENT” (HOTSPOT THERAPEUTICS, INC., priority 2022, published 2025)
